Drawing on ChEMBL document CHEMBL5653631, “A Potent and Selective ULK1 Inhibitor Suppresses Autophagy and Sensitizes Cancer Cells to Nutrient Stress” (iScience, 2018), this text covers fold change (FC) and inhibition for three compounds.

Molecules are shown by their SMILES.

In assay [1] the target is T1, Calcium/calmodulin-dependent protein kinase type IV (Homo sapiens) (UniProt Q16566).
T1 sequence (whole entry): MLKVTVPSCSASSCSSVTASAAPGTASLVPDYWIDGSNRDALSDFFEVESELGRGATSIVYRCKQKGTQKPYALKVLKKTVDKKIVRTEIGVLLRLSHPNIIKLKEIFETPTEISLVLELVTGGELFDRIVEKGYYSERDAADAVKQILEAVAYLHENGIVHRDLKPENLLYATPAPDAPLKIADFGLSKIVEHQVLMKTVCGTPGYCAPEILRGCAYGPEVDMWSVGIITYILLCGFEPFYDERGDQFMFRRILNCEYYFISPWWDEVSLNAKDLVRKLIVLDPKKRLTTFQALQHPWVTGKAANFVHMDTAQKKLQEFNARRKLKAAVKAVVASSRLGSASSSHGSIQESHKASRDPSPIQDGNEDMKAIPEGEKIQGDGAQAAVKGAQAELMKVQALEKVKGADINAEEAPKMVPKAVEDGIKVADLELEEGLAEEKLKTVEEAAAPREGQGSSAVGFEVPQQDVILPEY
Briefly: Inhibition of human recombinant CaMK4 at 40 nM related to control ULK1.

Assay [2] addresses T2, cAMP-dependent protein kinase catalytic subunit PRKX (Homo sapiens) (UniProt P51817).
T2 sequence (whole entry): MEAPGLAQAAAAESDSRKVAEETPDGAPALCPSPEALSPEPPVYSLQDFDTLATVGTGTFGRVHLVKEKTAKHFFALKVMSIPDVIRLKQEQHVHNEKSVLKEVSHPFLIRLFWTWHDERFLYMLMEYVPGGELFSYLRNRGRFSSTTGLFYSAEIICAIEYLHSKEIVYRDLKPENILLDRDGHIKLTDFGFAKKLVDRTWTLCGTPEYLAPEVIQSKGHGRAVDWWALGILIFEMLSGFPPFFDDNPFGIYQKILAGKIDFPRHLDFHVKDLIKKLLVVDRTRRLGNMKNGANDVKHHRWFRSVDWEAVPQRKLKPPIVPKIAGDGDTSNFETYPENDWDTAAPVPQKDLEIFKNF
The assay is described as follows: Inhibition of human recombinant PRKX at 40 nM in presence of ATP by radiometric assay relative to control.

Assay [3] has as its target T3, NUAK family SNF1-like kinase 1 (Homo sapiens) (UniProt O60285).
T3 sequence (whole entry): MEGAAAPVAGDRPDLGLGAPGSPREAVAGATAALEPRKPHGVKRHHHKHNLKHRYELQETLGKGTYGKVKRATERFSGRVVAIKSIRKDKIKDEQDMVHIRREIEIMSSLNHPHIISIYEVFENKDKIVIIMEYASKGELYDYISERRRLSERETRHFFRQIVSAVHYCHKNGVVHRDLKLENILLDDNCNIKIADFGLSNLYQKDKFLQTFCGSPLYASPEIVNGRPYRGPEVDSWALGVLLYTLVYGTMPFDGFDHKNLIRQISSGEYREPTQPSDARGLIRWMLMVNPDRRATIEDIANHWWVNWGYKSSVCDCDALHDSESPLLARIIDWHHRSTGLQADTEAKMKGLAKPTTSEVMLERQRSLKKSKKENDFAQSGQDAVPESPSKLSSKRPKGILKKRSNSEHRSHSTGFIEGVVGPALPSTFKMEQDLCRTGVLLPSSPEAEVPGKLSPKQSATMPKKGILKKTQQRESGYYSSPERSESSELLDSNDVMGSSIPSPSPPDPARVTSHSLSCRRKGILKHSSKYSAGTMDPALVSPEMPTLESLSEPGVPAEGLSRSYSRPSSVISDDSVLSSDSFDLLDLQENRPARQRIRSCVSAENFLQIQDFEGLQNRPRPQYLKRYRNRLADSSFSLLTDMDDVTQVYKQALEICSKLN
Briefly: Inhibition of human recombinant NuaK1 at 40 nM in presence of ATP by radiometric assay relative to control.

For assay [4], the target named is Cyclin-dependent kinase 4 (Homo sapiens) (UniProt P11802). Briefly: Inhibition of human recombinant CDK4 at 500 nM in presence of ATP by radiometric assay relative to control.
Assay [5] deals with T4, Homeodomain-interacting protein kinase 4 (Homo sapiens) (UniProt Q8NE63).
T4 sequence (whole entry): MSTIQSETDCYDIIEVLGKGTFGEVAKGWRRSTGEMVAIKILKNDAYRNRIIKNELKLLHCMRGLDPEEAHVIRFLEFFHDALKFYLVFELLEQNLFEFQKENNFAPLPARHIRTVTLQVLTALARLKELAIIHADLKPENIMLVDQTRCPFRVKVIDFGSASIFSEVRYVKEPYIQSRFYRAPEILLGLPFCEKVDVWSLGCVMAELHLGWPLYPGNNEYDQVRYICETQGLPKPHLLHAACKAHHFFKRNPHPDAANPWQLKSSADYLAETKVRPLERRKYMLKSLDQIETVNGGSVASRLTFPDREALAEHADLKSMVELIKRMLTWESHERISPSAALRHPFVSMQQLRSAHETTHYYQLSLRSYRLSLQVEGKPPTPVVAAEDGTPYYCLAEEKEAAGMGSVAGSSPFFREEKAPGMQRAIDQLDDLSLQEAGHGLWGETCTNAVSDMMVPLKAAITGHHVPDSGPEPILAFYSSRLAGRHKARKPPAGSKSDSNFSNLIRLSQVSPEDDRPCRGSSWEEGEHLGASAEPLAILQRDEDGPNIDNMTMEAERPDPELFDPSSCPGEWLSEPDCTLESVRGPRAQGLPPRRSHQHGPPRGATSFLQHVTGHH
The assay is described as follows: Inhibition of human recombinant HIPK4 at 500 nM related to control ULK1.

Assay [6] deals with Serine/threonine-protein kinase pim-1 (Homo sapiens) (UniProt P11309). Briefly: Inhibition of human recombinant PIM1 at 500 nM in presence of ATP by radiometric assay relative to control.
Assay [7] concerns the target Insulin receptor (Homo sapiens) (UniProt P06213). The assay is described as follows: Inhibition of human recombinant INSR at 500 nM in presence of ATP by radiometric assay relative to control.
Assay [8] concerns the target Cyclin-dependent kinase 7 (Homo sapiens) (UniProt P50613). Briefly: Inhibition of human recombinant CDK7 at 500 nM related to control ULK1.
Assay [9] has as its target Wee1-like protein kinase 2 (Homo sapiens) (UniProt P0C1S8). Briefly: Inhibition of human recombinant Wee1B at 15 nM in presence of ATP by radiometric assay relative to control.
The target of assay [10] is Serine/threonine-protein kinase mTOR (Homo sapiens) (UniProt P42345). The assay is described as follows: Inhibition of human recombinant FRAP at 15 nM in presence of ATP by radiometric assay relative to control.
Assay [11] has as its target RAF proto-oncogene serine/threonine-protein kinase (Homo sapiens) (UniProt P04049). The assay is described as follows: Inhibition of human recombinant RAF1 at 15 nM related to control ULK1.
The species entered for the next assay is Homo sapiens. The assay is described as follows: Inhibition of human recombinant KHS1 at 15 nM in presence of ATP by radiometric assay relative to control.

Sequence of Cyclin-dependent kinase 7 (Homo sapiens) (P50613 whole entry): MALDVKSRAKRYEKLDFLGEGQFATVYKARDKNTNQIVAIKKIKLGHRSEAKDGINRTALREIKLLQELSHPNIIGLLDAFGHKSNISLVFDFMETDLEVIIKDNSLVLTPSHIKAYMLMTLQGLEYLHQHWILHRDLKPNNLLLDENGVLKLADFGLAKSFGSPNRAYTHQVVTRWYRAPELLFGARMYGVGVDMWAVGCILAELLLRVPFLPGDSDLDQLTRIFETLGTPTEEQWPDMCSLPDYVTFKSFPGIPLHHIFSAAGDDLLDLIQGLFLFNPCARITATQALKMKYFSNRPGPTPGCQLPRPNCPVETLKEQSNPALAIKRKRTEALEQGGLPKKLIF
Sequence of Cyclin-dependent kinase 4 (Homo sapiens) (P11802 whole entry): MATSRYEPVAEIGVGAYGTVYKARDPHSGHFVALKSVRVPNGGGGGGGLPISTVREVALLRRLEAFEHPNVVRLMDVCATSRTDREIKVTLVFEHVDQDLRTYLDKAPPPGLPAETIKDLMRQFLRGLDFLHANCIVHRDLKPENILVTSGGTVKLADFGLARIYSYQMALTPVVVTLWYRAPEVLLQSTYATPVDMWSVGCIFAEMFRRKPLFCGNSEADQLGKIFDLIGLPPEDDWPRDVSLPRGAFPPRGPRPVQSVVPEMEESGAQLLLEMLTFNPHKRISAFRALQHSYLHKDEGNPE
Sequence of RAF proto-oncogene serine/threonine-protein kinase (Homo sapiens) (P04049 whole entry): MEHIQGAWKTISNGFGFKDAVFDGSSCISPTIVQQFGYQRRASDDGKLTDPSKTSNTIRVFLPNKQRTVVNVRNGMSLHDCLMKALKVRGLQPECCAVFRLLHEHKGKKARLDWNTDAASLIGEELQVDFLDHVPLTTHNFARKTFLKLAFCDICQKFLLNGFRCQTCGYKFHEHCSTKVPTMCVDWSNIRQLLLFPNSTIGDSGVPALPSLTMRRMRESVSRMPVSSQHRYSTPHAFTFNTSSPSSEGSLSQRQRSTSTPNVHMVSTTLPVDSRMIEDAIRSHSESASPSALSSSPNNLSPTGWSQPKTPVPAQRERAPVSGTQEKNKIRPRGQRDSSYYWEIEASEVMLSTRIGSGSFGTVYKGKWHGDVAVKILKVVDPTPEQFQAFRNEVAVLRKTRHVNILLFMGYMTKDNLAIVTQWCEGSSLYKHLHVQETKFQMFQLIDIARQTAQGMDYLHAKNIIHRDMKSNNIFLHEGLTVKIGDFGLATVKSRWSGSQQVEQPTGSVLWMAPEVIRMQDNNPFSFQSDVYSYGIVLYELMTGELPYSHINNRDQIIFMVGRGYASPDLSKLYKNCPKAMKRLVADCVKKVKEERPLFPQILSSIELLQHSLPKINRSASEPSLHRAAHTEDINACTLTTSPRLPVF
Sequence of Wee1-like protein kinase 2 (Homo sapiens) (P0C1S8 whole entry, looked up): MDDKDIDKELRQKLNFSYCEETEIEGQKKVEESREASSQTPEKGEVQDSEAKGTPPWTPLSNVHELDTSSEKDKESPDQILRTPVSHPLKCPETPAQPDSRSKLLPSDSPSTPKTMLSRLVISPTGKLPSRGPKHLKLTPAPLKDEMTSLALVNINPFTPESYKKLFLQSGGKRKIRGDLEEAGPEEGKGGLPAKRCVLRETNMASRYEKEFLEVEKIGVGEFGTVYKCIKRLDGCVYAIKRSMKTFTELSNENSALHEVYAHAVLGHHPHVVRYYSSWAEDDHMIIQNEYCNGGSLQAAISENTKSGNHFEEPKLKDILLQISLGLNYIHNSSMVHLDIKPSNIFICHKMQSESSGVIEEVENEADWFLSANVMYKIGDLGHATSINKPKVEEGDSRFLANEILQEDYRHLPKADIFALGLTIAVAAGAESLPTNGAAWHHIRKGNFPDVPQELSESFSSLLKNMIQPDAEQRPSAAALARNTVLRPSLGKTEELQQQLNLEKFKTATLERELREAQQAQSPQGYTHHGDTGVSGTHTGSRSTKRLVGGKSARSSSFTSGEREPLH
Sequence of Insulin receptor (Homo sapiens) (P06213 28-758 limits assumed): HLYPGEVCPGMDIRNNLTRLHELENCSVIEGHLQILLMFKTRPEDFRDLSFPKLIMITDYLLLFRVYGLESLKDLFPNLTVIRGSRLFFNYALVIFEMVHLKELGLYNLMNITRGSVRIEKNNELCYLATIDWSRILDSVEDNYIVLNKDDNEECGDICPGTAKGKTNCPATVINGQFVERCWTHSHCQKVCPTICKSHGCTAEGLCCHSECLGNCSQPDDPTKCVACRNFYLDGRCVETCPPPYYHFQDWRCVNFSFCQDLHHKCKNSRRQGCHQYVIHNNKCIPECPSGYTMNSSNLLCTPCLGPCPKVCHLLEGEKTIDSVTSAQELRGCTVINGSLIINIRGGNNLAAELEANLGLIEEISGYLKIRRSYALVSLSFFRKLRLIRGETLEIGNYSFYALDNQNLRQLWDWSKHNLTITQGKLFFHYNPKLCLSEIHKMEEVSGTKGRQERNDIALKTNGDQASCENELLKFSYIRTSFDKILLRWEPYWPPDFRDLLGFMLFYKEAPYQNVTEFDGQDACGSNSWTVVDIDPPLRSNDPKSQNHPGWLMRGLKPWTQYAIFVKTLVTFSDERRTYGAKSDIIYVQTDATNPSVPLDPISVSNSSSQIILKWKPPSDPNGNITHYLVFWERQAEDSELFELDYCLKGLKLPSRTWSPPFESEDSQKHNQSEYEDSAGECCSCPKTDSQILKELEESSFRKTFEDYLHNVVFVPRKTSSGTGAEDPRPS
Sequence of Insulin receptor (Homo sapiens) (P06213 763-1382 limits assumed): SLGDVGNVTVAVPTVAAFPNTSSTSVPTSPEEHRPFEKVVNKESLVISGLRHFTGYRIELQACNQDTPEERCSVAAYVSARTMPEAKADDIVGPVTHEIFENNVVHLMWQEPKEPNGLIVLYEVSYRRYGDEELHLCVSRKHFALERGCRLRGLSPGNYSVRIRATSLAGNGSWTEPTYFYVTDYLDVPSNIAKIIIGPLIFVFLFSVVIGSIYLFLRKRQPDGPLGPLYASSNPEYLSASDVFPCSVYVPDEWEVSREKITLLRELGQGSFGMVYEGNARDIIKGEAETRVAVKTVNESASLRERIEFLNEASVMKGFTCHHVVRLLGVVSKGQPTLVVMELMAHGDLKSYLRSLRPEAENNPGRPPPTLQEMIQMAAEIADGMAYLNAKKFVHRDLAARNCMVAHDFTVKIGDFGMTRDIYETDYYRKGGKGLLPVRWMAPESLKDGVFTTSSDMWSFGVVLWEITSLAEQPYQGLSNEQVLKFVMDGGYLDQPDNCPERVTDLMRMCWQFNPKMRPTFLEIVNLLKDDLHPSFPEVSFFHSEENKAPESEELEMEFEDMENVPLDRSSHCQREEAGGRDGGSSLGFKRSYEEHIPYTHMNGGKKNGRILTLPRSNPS
Sequence of Serine/threonine-protein kinase pim-1 (Homo sapiens) (P11309 whole entry, looked up): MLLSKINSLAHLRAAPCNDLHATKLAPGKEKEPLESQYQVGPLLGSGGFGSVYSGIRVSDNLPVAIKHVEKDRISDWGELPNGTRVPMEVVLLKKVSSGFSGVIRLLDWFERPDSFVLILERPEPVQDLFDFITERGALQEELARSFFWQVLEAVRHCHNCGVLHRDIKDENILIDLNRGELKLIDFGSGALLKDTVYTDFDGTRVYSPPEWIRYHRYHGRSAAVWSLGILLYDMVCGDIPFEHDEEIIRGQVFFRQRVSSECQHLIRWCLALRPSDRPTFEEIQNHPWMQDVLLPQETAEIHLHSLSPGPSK

As a reminder, the inhibition is how much of the control response was suppressed. Consider `O=C(N[C@@H](C1CC1)C(F)(F)F)c1cc(-c2cnn3cc(-c4ccc(F)cc4)cnc23)cs1`, for which, in assay [1], the fold change (FC) worked out at 0. Also, the inhibition in assay [2] came to 20%; in assay [3] it was 5%.

For `CNC(=O)c1ccccc1Oc1nc(Nc2cc(OC)c(OC)c(OC)c2)ncc1Br`, the values for the inhibition in [4], in assay [6] and in assay [7] were 0%, 2% and 0%, respectively. Also, the fold change (FC) came to 0.12 in assay [5] and 0.39 in [8].

`CC(C)[C@H](NC(=O)c1cc(-c2cnn3cc(-c4ccc(OCCN5CCCCC5)cc4)cnc23)cs1)C(F)(F)F`: the inhibition in [9] was determined as 11%; in [10], 0%; in the assay listed under Homo sapiens it was 14%. Further, the fold change (FC) in assay [11] amounted to 0.09.
